In paper PMC10101933 (European journal of medicinal chemistry, 2023):
One block for each molecule: values may come before it.

Assays:
[1] = test system: Nrf2 target genes (GSTM3, HMOX1 and NQO1); assay: RT-qPCR of Nrf2-ARE regulated genes in NCM460D cells; assay type: cell-based; conditions: 100 μM; for induction of the Nrf2 target genes (HMOX1, GSTM3, NQO1), in words: vs GAPDH and HPRT housekeeping genes
[2] = target: T1, Keap1 Kelch domain protein (Homo sapiens, UniProt Q14145); assay: Time-resolved fluorescence resonance energy transfer; assay type: binding
[3] = target: T1, Keap1 Kelch domain protein; assay: Fluorescence polarization; assay type: binding

T1 sequence (Q14145 321-609 limits assumed): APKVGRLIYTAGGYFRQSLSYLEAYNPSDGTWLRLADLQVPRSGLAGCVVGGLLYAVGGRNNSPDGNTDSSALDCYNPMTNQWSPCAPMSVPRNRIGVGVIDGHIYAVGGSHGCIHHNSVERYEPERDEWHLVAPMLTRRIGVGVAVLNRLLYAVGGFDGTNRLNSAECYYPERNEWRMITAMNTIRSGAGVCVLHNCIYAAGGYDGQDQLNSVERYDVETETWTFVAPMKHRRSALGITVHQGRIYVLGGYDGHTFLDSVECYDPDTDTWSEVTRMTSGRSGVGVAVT

fold increase in binding affinity vs 17b ([2]; as indicated by the TR-FRET Ki): 2 fold
Structure (SMILES): COc1ccc(S(=O)(=O)N(CC(=O)O)c2cc(CCC(=O)N3CCOCC3)c(N(CC(=O)O)S(=O)(=O)c3ccc(OC)cc3)c3ccccc23)cc1 [Compound 17c, 2,2’-((2-(3-Morpholino-3-oxopropyl)naphthalene-1,4-diyl)bis(((4-methoxyphenyl)sulfonyl)azanediyl))diacetic acid]
induction of the Nrf2 target genes (HMOX1, GSTM3, NQO1), in words [1]: significant induction

fold drop in inhibitory activity vs 2a ([2]; as indicated by the Ki value from the TR-FRET assay): ~2 fold
Structure (SMILES): COc1ccc(S(=O)(=O)N(CC(=O)O)c2cc(CCC(N)=O)c(N(CC(=O)O)S(=O)(=O)c3ccc(OC)cc3)c3ccccc23)cc1 [Compound 21, 2,2’-((2-(3-Amino-3-oxopropyl)naphthalene-1,4-diyl)bis(((4-methoxyphenyl)sulfonyl)azanediyl))diacetic acid]

Ki value (in words) ([2]; from TR-FRET assay): subnanomolar range
Structure (SMILES): COc1ccc(S(=O)(=O)N(CC(=O)O)c2cc(CCCN3C(=O)c4ccccc4C3=O)c(N(CC(=O)O)S(=O)(=O)c3ccc(OC)cc3)c3ccccc23)cc1 [Compound 24a, 2,2’-((2-(3-(1,3-Dioxoisoindolin-2-yl)propyl)naphthalene-1,4-diyl)bis(((4-methoxyphenyl)sulfonyl)azanediyl))diacetic acid]
mRNA levels of GSTM3, HMOX1 and NQO1, fold vs vehicle (DMSO) control [1]: 2.4–11.7 fold | induction of the Nrf2 target genes (HMOX1, GSTM3, NQO1), in words [1]: significant induction

Continued, molecule first:

Structure (SMILES): COc1ccc(-c2cc(N(CC(=O)O)S(=O)(=O)c3ccc(OC)cc3)c3ccccc3c2N(CC(=O)O)S(=O)(=O)c2ccc(OC)cc2)cc1 [Compound 12b, 2,2’-((2-(4-Methoxyphenyl)naphthalene-1,4-diyl)bis(((4-methoxyphenyl)sulfonyl)azanediyl))diacetic acid]
induction of the Nrf2 target genes (HMOX1, GSTM3, NQO1), in words [1]: significant induction

Structure (SMILES): COc1ccc(S(=O)(=O)N(CC(=O)O)c2cc(-c3ccc(C#N)cc3)c(N(CC(=O)O)S(=O)(=O)c3ccc(OC)cc3)c3ccccc23)cc1 [Compound 12c, 2,2’-((2-(4-Cyanophenyl)naphthalene-1,4-diyl)bis(((4-methoxyphenyl)sulfonyl)azanediyl))diacetic acid]
induction of the Nrf2 target genes (HMOX1, GSTM3, NQO1), in words [1]: no induction

Structure (SMILES): COc1ccc(S(=O)(=O)N(CC(=O)O)c2cc(-c3ccc(N4C(=O)c5ccccc5C4=O)cc3)c(N(CC(=O)O)S(=O)(=O)c3ccc(OC)cc3)c3ccccc23)cc1 [Compound 12d, 2,2’-((2-(4-(1,3-Dioxoisoindolin-2-yl)phenyl)naphthalene-1,4-diyl)bis(((4-methoxyphenyl)sulfonyl)azanediyl))diacetic acid]
induction of the Nrf2 target genes (HMOX1, GSTM3, NQO1), in words [1]: significant induction

Structure (SMILES): COc1ccc(S(=O)(=O)N(CC(N)=O)c2cc(CCC(=O)O)c(N(CC(N)=O)S(=O)(=O)c3ccc(OC)cc3)c3ccccc23)cc1 [Compound 17a, 3-(1,4-Bis((N-(2-amino-2-oxoethyl)-4-methoxyphenyl)sulfonamido)naphthalen-2-yl)propanoic acid]
fold decrease in potency relative to 2a ([2]; as indicated by TR-FRET IC50 and Ki): 3 fold

Structure (SMILES): COc1ccc(S(=O)(=O)N(CC(=O)O)c2cc(CCCN(C)Cc3ccccc3)c(N(CC(=O)O)S(=O)(=O)c3ccc(OC)cc3)c3ccccc23)cc1 [Compound 24b, 2,2’-((2-(3-(Benzyl(methyl)amino)propyl)naphthalene-1,4-diyl)bis(((4-methoxyphenyl)sulfonyl)azanediyl))diacetic acid]
IC50 [3]: 276 ± 17 nM | fold reduction in potency vs 24a ([2]; TR-FRET assay): more than 20 fold
